# Assay results: PubChem BioAssay AID1918995 (Molecular Pharmacology Branch, DTP, NCI, 2023)
# Tested on: 324938-238-R-J1-PDC complex spheroid growth, % test/control
# Experiment: Anticancer human tumor 324938-238-R-J1-PDC patient-derived bladder carcinoma cell line growth inhibition [AhR]
# Settings: for IC50: curve of first compound; for viability, T/C: stronger effect = lower value
# Text: Multicellular complex tumor spheroid response to aryl hydrocarbon receptor antagonists in combination with a variety of drugs and investigational agents in selected tumor cell lines
# The current study was undertaken to assess response to aryl hydrocarbon receptor antagonists in combination with standard-of-care drugs and investigational agents in solid tumor complex spheroid models. Complex spheroids include a stromal component modeled by human endothelial cells (HUVEC) and fibroblasts modeled by human mesenchymal stem cells (MSCs). The concentration ranges selected for each drug and investigational agent were based upon clinically achievable concentrations if the clinical Cmax of the agent was known.
# Compounds. The drugs and investigational agents: BAY 2416964 (NSC825713), GNF351 (NSC835774), CH-223191 (NSC835775), CPI-455 (NSC825282), aza-TdCyd (NSC777586), decitabine (NSC127716), belinostat (NSC758774), entinostat (NSC756642), pevonedistat (NSC761192), tazemetostat (NSC777109), talazoparib (NSC765396), olaparib (NSC753686), selinexor (NSC780203), nedisertib (M3814, NSC802822), bortezomib (NSC756655), venetoclax (NSC766270), doxorubicin (NSC123127), elimusertib (BAY189344, NSC800525), ceralasertib (AZD6738, NSC777638), TAK-243 (NSC785004), alisertib (NSC759677), etoposide (NSC141540), topotecan (NSC609699), eribulin (NSC707389), gemcitabine (NSC613327), carboplatin (NSC241240), cisplatin (NSC119875), and SN-38 (NSC673596) were obtained from the National Cancer Institute (NCI) Developmental Therapeutics Program Chemical Repository (32). The FDA-approved anticancer drug set is available from the Developmental Therapeutics Program at https://dtp.cancer.gov/organization/dscb/obtaining/available plates.htm. […] The stock solutions were prepared in dimethyl sulfoxide (DMSO, Sigma-Aldrich, St. Louis, MO, cat. D2650), except for the platinum compounds which were prepared in saline (Quality Biological, Gaithersburg, MD, cat. 114-055-101), at 800-fold the tested concentration and stored at -70 degrees C prior to their use. All drugs and investigational agents were tested over a range starting from a high concentration at or near the clinical Cmax and decreasing in half-log increments. If the clinical Cmax for an agent had not been determined, the highest concentration tested was 10 microM (Table 1).
# Cell Culture. All cells were maintained in an incubator at 37 degrees C and 5% CO2 with 95% humidity. The PDC lines were cultured according to standard operating procedures established by the NCI PDMR (https://pdmr.cancer.gov). Briefly, all PDCs were thawed and cultured in Matrigel-coated flasks prepared with a working solution of 1X Ham's F-12 nutrient mix, without supplementation (Invitrogen, Waltham, MA, cat. 11765054), 100 U/mL penicillin-streptomycin (Invitrogen, cat. 15140122), and 2.5% Matrigel (Corning Inc., Corning, NY, cat. 354248) for the first three passages. All PDCs were cultured in complete DMEM/F-12 media containing advanced DMEM/F-12 (Invitrogen, cat. 12634028), 4.9% defined fetal bovine serum, heat inactivated (HyClone Laboratories Inc., Logan, UT, cat. SH30070.03HI), 389 ng/mL hydrocortisone (Sigma-Aldrich, cat. H4001), 9.7 ng/mL human EGF recombinant protein (Invitrogen, cat. PHG0313), 23.4 microg/mL adenine (Sigma-Aldrich, cat. A2786), 97.3 U/mL penicillin-streptomycin (Invitrogen, cat. 15140122), 1.9 mM L-glutamine (Invitrogen, cat. 25030081), and 9.7 microM Y-27632 dihydrochloride (Tocris Bioscience, Bristol, United Kingdom, cat. 1254). The PDCs were cultured in complete DMEM/F12 media without 10 microM Y-27632 dihydrochloride for at least two passages prior to the screen. The established cell lines NCI-H1341 and […] were cultured in DMEM/F-12, HEPES (Invitrogen, cat. 11330032), 5% defined fetal bovine serum (HyClone Laboratories Inc., cat. SH30070.03), ITS premix universal culture supplement [insulin (5 microg/mL), transferrin (5 microg/mL), and selenious acid (5 ng/mL)] […]
# 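Note: spheroids exposed to agents for seven days before viability read.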
compound,measurement,setting,value
CCc1c2c(nc3ccc(O)cc13)-c1cc3c(c(=O)n1C2)COC(=O)[C@]3(O)CC + Cc1cncc(-c2nc(NCCc3c[nH]c4ccccc34)c3ncn(C(C)C)c3n2)c1,IC50,second compound 0.1 µM,> 300 nM
same,IC50,second compound 0.316 µM,> 300 nM
same,IC50,second compound 1 µM,> 300 nM
same,IC50,second compound 3.16 µM,204 nM
same,IC50,second compound 10 µM,< 0.949 nM
same,"viability, T/C","second compound 0.1 µM, first compound 0.000949 µM",89.1%
same,"viability, T/C","second compound 0.1 µM, first compound 0.003 µM",71.7%
same,"viability, T/C","second compound 0.1 µM, first compound 0.00949 µM",91.8%
same,"viability, T/C","second compound 0.1 µM, first compound 0.03 µM",65.7%
same,"viability, T/C","second compound 0.1 µM, first compound 0.0949 µM",83.1%
same,"viability, T/C","second compound 0.1 µM, first compound 0.3 µM",80.9%
same,"viability, T/C","second compound 0.316 µM, first compound 0.000949 µM",82.3%
same,"viability, T/C","second compound 0.316 µM, first compound 0.003 µM",81.9%
same,"viability, T/C","second compound 0.316 µM, first compound 0.00949 µM",102%
same,"viability, T/C","second compound 0.316 µM, first compound 0.03 µM",97.3%
same,"viability, T/C","second compound 0.316 µM, first compound 0.0949 µM",63.5%
same,"viability, T/C","second compound 0.316 µM, first compound 0.3 µM",61.4%
same,"viability, T/C","second compound 1 µM, first compound 0.000949 µM",88.5%
same,"viability, T/C","second compound 1 µM, first compound 0.003 µM",71.3%
same,"viability, T/C","second compound 1 µM, first compound 0.00949 µM",93.6%
same,"viability, T/C","second compound 1 µM, first compound 0.03 µM",76%
same,"viability, T/C","second compound 1 µM, first compound 0.0949 µM",73.9%
same,"viability, T/C","second compound 1 µM, first compound 0.3 µM",70.3%
same,"viability, T/C","second compound 3.16 µM, first compound 0.000949 µM",71.7%
same,"viability, T/C","second compound 3.16 µM, first compound 0.003 µM",95.7%
same,"viability, T/C","second compound 3.16 µM, first compound 0.00949 µM",91.7%
same,"viability, T/C","second compound 3.16 µM, first compound 0.03 µM",79.3%
same,"viability, T/C","second compound 3.16 µM, first compound 0.0949 µM",55.4%
same,"viability, T/C","second compound 3.16 µM, first compound 0.3 µM",47.2%
same,"viability, T/C","second compound 10 µM, first compound 0.000949 µM",2.77%
same,"viability, T/C","second compound 10 µM, first compound 0.003 µM",3.5%
same,"viability, T/C","second compound 10 µM, first compound 0.00949 µM",8.95%
same,"viability, T/C","second compound 10 µM, first compound 0.03 µM",6.69%
same,"viability, T/C","second compound 10 µM, first compound 0.0949 µM",10.2%
same,"viability, T/C","second compound 10 µM, first compound 0.3 µM",10.6%
